What all share (assay): relative viability (nuclei count vs DMSO), 5 days (fraction); higher = more cells survive
Compound in assay [1]: C=CC(=O)N1CCC[C@@H](n2nc(-c3ccc(Oc4ccccc4)cc3)c3c(N)ncnc32)C1 [Ibrutinib] + Cc1cc(Nc2cc(N3CCN(C)CC3)nc(Sc3ccc(NC(=O)C4CC4)cc3)n2)n[nH]1 [Tozasertib] (partner 0.1 µM)
The gist of the method:
(§1)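 Relative viability was taken as the ratio of nuclei in treated wells to nuclei in vehicle wells. Lung cancer cell lines in 1536-well plates received compounds by pin tool one day after seeding, either one drug alone or a fixed anchor-drug dose plus five library-drug doses (not always all listed) in √10 steps. Nuclei were counted on 4× images after 5 days of treatment, and values are medians of duplicate plates.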

Compound in assay [2]: C=CC(=O)Nc1cc(-n2c(=O)ccc3cnc4ccc(-c5ccc(NS(C)(=O)=O)cc5)cc4c32)ccc1C [BMX-IN-1] + CC(=O)Nc1cccc(-n2c(=O)n(C3CC3)c(=O)c3c(Nc4ccc(I)cc4F)n(C)c(=O)c(C)c32)c1 [Trametinib] (partner 0.02 µM)
The essentials: as §1

Compound in assay [3]: C=CC(=O)Nc1cc(-n2c(=O)ccc3cnc4ccc(-c5ccc(NS(C)(=O)=O)cc5)cc4c32)ccc1C [BMX-IN-1] + Nc1nc2[nH]cc(CCc3ccc(C(=O)N[C@@H](CCC(=O)O)C(=O)O)cc3)c2c(=O)[nH]1 [Pemetrexed] (partner 0.2 µM)
The gist of the method: as §1

Compound in assay [4]: C=CCc1cccc(/C=N/NC(=O)CN2CCN(Cc3ccccc3)CC2)c1O [PAC-1] + Cc1nc(Nc2ncc(C(=O)Nc3c(C)cccc3Cl)s2)cc(N2CCN(CCO)CC2)n1 [Dasatinib] (partner 0.075 µM)
The essentials:
as §1

In the case of NCI-H2023, the relative viability amounted to 0.388 in assay [1] (first compound 0.005 µM); 0.303 in assay [1] (first compound 0.01581 µM); 0.324 in assay [1] (first compound 0.05 µM); 0.394 in assay [1] (first compound 0.1581 µM); 0.324 in assay [1] (first compound 0.5 µM); 0.586 in assay [2] (first compound 0.02 µM). In addition, the relative viability was determined as 0.564 in assay [2] (first compound 0.2 µM); 0.623 in assay [2] (first compound 0.6325 µM); 0.539 in assay [2] (first compound 2 µM); 0.285 in assay [3] (first compound 0.02 µM); 0.304 in assay [3] (first compound 0.2 µM); 0.226 in assay [3] (first compound 0.6325 µM). Further, the relative viability is 0.26 in assay [3] (first compound 2 µM); 0.553 in assay [4] (first compound 0.02 µM); 0.615 in assay [4] (first compound 0.06325 µM); 0.42 in assay [4] (first compound 0.2 µM); 0.55 in assay [4] (first compound 2 µM).
For the cell line NCI-H2085, the relative viability in assay [1] (first compound 0.005 µM) worked out at 0.853; in assay [1] (first compound 0.01581 µM), 0.628; in assay [1] (first compound 0.05 µM) it was 0.623; in assay [1] (first compound 0.1581 µM), 0.855; in assay [1] (first compound 0.5 µM), 0.697; in assay [2] (first compound 0.02 µM), 0.52. The relative viability is 0.75 in assay [2] (first compound 0.2 µM); 0.564 in assay [2] (first compound 0.6325 µM); 0.538 in assay [2] (first compound 2 µM); 0.968 in assay [3] (first compound 0.02 µM); 0.823 in assay [3] (first compound 0.2 µM); 0.923 in assay [3] (first compound 0.6325 µM). Besides, the relative viability in assay [3] (first compound 2 µM) stood at 0.909; in assay [4] (first compound 0.02 µM), 0.225; in assay [4] (first compound 0.06325 µM), 0.234; in assay [4] (first compound 0.2 µM), 0.285; in assay [4] (first compound 2 µM), 0.213.
In the case of NCI-H2087, the relative viability came to 0.303 in assay [1] (first compound 0.005 µM); 0.206 in assay [1] (first compound 0.01581 µM); 0.262 in assay [1] (first compound 0.05 µM); 0.233 in assay [1] (first compound 0.5 µM); 0.204 in assay [2] (first compound 0.02 µM); 0.174 in assay [2] (first compound 0.2 µM). For the same cell line, the relative viability is 0.214 in assay [2] (first compound 0.6325 µM); 0.218 in assay [2] (first compound 2 µM); 0.725 in assay [3] (first compound 0.02 µM); 0.715 in assay [3] (first compound 0.2 µM); 0.669 in assay [3] (first compound 0.6325 µM); 0.625 in assay [3] (first compound 2 µM). For the same cell line, the relative viability in assay [4] (first compound 0.02 µM) is 0.915; in assay [4] (first compound 0.06325 µM) it was 0.848; in assay [4] (first compound 0.2 µM) it was 0.798; in assay [4] (first compound 2 µM) it was 0.78.
Consider NCI-H2126, for which the relative viability stood at 0.701 in assay [1] (first compound 0.005 µM); 0.811 in assay [1] (first compound 0.01581 µM); 0.792 in assay [1] (first compound 0.05 µM); 0.818 in assay [1] (first compound 0.1581 µM); 0.755 in assay [1] (first compound 0.5 µM); 0.55 in assay [2] (first compound 0.02 µM). Besides, the relative viability in assay [2] (first compound 0.2 µM) turned out to be 0.55; in assay [2] (first compound 0.6325 µM), 0.592; in assay [2] (first compound 2 µM), 0.603; in assay [3] (first compound 0.02 µM), 0.777; in assay [3] (first compound 0.2 µM), 0.7; in assay [3] (first compound 0.6325 µM), 0.705. Moreover, the relative viability is 0.721 in assay [3] (first compound 2 µM); 0.615 in assay [4] (first compound 0.02 µM); 0.584 in assay [4] (first compound 0.06325 µM); 0.642 in assay [4] (first compound 0.2 µM); 0.615 in assay [4] (first compound 2 µM).
For the cell line NCI-H2170, the relative viability in assay [1] (first compound 0.005 µM) worked out at 0.676; in assay [1] (first compound 0.01581 µM) it was 0.748; in assay [1] (first compound 0.05 µM), 0.519; in assay [1] (first compound 0.1581 µM), 0.63; in assay [1] (first compound 0.5 µM), 0.23; in assay [2] (first compound 0.02 µM), 0.951. Moreover, the relative viability in assay [2] (first compound 0.2 µM) was found to be 1.02; in assay [2] (first compound 0.6325 µM) it was 1.09; in assay [2] (first compound 2 µM), 0.906; in assay [3] (first compound 0.02 µM) it was 0.273; in assay [3] (first compound 0.2 µM), 0.285; in assay [3] (first compound 0.6325 µM), 0.319. In addition, the relative viability in assay [3] (first compound 2 µM) came to 0.243; in assay [4] (first compound 0.02 µM), 0.499; in assay [4] (first compound 0.06325 µM) it was 0.506; in assay [4] (first compound 0.2 µM) it was 0.625; in assay [4] (first compound 2 µM), 0.712.
In the case of NCI-H2228, the relative viability amounted to 0.282 in assay [1] (first compound 0.005 µM); 0.253 in assay [1] (first compound 0.05 µM); 0.307 in assay [1] (first compound 0.1581 µM); 0.187 in assay [1] (first compound 0.5 µM); 0.41 in assay [2] (first compound 0.02 µM); 0.596 in assay [2] (first compound 0.2 µM). The relative viability was found to be 0.481 in assay [2] (first compound 0.6325 µM); 0.488 in assay [2] (first compound 2 µM); 0.408 in assay [3] (first compound 0.02 µM); 0.331 in assay [3] (first compound 0.2 µM); 0.396 in assay [3] (first compound 0.6325 µM); 0.325 in assay [3] (first compound 2 µM). In addition, the relative viability in assay [4] (first compound 0.02 µM) is 0.506; in assay [4] (first compound 0.06325 µM), 0.505; in assay [4] (first compound 0.2 µM), 0.537; in assay [4] (first compound 2 µM), 0.501.
On to NCI-H2342, for which the relative viability in assay [1] (first compound 0.005 µM) turned out to be 0.499; in assay [1] (first compound 0.01581 µM), 0.493; in assay [1] (first compound 0.05 µM), 0.577; in assay [1] (first compound 0.1581 µM), 0.53; in assay [1] (first compound 0.5 µM), 0.396; in assay [2] (first compound 0.02 µM), 0.834. In addition, the relative viability in assay [2] (first compound 0.2 µM) amounted to 0.768; in assay [2] (first compound 0.6325 µM), 0.85; in assay [2] (first compound 2 µM) it was 0.791; in assay [3] (first compound 0.02 µM), 0.815; in assay [3] (first compound 0.2 µM), 0.802; in assay [3] (first compound 0.6325 µM), 0.97. Also, the relative viability in assay [3] (first compound 2 µM) worked out at 0.796; in assay [4] (first compound 0.02 µM), 0.302; in assay [4] (first compound 0.06325 µM), 0.311; in assay [4] (first compound 0.2 µM), 0.295; in assay [4] (first compound 2 µM) it was 0.302.
Consider NCI-H2347, for which the relative viability in assay [1] (first compound 0.01581 µM) is 0.643; in assay [1] (first compound 0.05 µM), 0.739; in assay [1] (first compound 0.1581 µM), 0.532; in assay [1] (first compound 0.5 µM), 0.548; in assay [2] (first compound 0.02 µM), 0.295; in assay [2] (first compound 0.2 µM), 0.291. In addition, the relative viability in assay [2] (first compound 0.6325 µM) came to 0.322; in assay [2] (first compound 2 µM), 0.292; in assay [3] (first compound 0.02 µM), 0.412; in assay [3] (first compound 0.2 µM) it was 0.298; in assay [3] (first compound 0.6325 µM), 0.417; in assay [3] (first compound 2 µM), 0.397. Moreover, the relative viability in assay [4] (first compound 0.02 µM) was 0.28; in assay [4] (first compound 0.06325 µM) it was 0.3; in assay [4] (first compound 0.2 µM), 0.312; in assay [4] (first compound 2 µM) it was 0.362.
With NCI-H2405, the relative viability worked out at 0.85 in assay [1] (first compound 0.005 µM); 0.739 in assay [1] (first compound 0.01581 µM); 0.798 in assay [1] (first compound 0.05 µM); 0.75 in assay [1] (first compound 0.1581 µM); 0.717 in assay [1] (first compound 0.5 µM); 0.688 in assay [2] (first compound 0.02 µM). The relative viability worked out at 0.642 in assay [2] (first compound 0.2 µM); 0.659 in assay [2] (first compound 0.6325 µM); 0.591 in assay [2] (first compound 2 µM); 1.13 in assay [3] (first compound 0.02 µM); 1.19 in assay [3] (first compound 0.2 µM); 1.09 in assay [3] (first compound 0.6325 µM). In addition, the relative viability in assay [3] (first compound 2 µM) worked out at 0.94; in assay [4] (first compound 0.02 µM) it was 0.173; in assay [4] (first compound 0.06325 µM), 0.221; in assay [4] (first compound 0.2 µM), 0.207; in assay [4] (first compound 2 µM), 0.176.

The values are drawn from the supplement of paper PMC10307832.
